In patent publication US20240051975A1 (TSINGHUA UNIVERSITY, priority 2020, published 2024):

What was measured:
[1] = test system: cell death induced by the NAMPT inhibitor FK866; assay: Protection against cell death induced by the NAMPT inhibitor FK866 (Celltiter-Glo, cellular ATP); type: cell-based; conditions: AUC of dose-response curve (0.1-10 μM) relative to AUC of NAT; 10 nM FK866, 72 hours, cell viability by ATP
Method: In the latter cell-based assay, we determined the degree of protection of NAT and derivatives thereof against the NAMPT inhibitor FK866. […] After 72 hours, Celltiter-Glo (Promega) was used to detect cellular ATP levels to reflect cell viability and normalized to the DMSO group. A dose-response curve was drawn to evaluate the cytoprotective activity of individual compounds against FK866. Then the area under the dose-response curve (AUC, area under curve) of each compound was calculated and compared with the AUC of NAT, so that the obtained relative value quantitatively expressed the cytoprotective activity of each compound.

NAMPT [2] = biological target: T1, NAMPT (Homo sapiens, UniProt P43490); assay: Isothermal calorimetric titration (ITC) binding to NAMPT
T1 sequence (P43490 whole entry, species assumed): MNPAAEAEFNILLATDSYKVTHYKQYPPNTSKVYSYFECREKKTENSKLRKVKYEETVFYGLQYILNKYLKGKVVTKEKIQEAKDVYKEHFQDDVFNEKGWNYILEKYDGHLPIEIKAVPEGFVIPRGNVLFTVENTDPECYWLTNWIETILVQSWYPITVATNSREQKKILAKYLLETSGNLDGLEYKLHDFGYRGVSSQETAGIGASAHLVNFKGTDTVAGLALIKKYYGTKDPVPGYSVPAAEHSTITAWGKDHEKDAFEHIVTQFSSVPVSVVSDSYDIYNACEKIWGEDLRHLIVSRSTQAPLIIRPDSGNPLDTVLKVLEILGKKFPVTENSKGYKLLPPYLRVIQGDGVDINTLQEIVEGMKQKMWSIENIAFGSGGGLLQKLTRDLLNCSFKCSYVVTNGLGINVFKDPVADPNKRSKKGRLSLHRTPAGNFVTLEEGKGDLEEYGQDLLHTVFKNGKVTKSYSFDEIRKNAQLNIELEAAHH
Source text: We verified the direct binding between in vitro expressed and purified NAMPT and NAT by isothermal calorimetric titration (ITC). […] The final data were fitted using a single-point model.

NAMPT [3] = biological target: T1, NAMPT; assay: NAMPT enzyme activity assay coupled with NMNAT1 and ADH (NADH fluorescence); conditions: for Relative activation of NAMPT activity: AUC of dose-response curve (0.1, 0.3, 1, 3, 10 μM) relative to AUC of NAT (NAT = 1), 1 μM NAMPT, 200 μM NAM
Method: The NAMPT enzyme activity was assayed by a method coupled with the three enzymes: NAMPT, NMNAT1 and alcohol dehydrogenase (ADH). NAMPT synthesizes NMN from NAM and PRPP, NMNAT1 synthesizes NAD from NMN produced in the first step, and ADH converts NAD into detectable fluorescent NADH. […] The reaction was initiated by adding 200 μM nicotinamide (NAM) and mixing gently. The enzyme activity of NAMPT was expressed as the concentration of NADH generated per minute (the molar value was equal to NAD). The relative enzyme activity of NAMPT in each compound-treated group was normalized by the value of the DMSO-treated group, and a dose-response curve was drawn to evaluate the effect of individual compounds on NAMPT enzyme activity. The area under the dose-response curve (AUC, area under curve) was then calculated for individual compound and compared to the AUC of NAT, so that the obtained relative value quantitative Eauc represented the enzyme activation activity of each compound, and the specific calculation formula was shown in FIG. 3.

Row | SMILES | binding to NAMPT (in words) (NAMPT [2]) | NAMPT activation activity (in words) (NAMPT [3]) | Relative activation of NAMPT activity (NAMPT [3]) | Relative cytoprotective activity [1]
1 | CC(C)(C)c1cccc(CNC(=O)Nc2ccc(O)cc2)c1 [Compound 20, 1-(3-tert-butyl)benzyl-3-(4-hydroxyl)phenylurea] | – | – | −0.1622 | 0.135
2 | CC(C)(C)c1cccc(OCC(=O)NCc2ccc(O)cc2)c1 [Compound 22, 2-(3-(tert-butyl)phenoxy)-N-(4-hydroxybenzyl)acetamide] | – | – | −0.2162 | 0.1187
3 | O=C(COc1ccccc1C(F)(F)F)Nc1ccc(O)cc1 [Compound 23, N-(4-hydroxyphenyl)-2-(2-(trifluoromethyl)phenoxy)acetamide] | – | – | 0.2389 | 0.2337
4 | CC(C)c1ccccc1OCC(=O)Nc1ccc(O)cc1 [Compound 24, N-(4-hydroxyphenyl)-2-(2-isopropylphenoxy)acetamide] | – | – | 1.35 | 0.5447
5 | COc1ccc(OCC(=O)Nc2ccc(O)cc2)c(C(C)(C)C)c1 [Compound 51] | – | – | 1.382 | 1.402
6 | Cc1cccc(C(C)(C)C)c1OCC(=O)Nc1ccc(O)cc1 [Compound 53, 2-(2-(tert-butyl)-6-methylphenoxy)-N-(4-hydroxyphenyl)acetamide] | – | – | 0.327 | 0.571
7 | Cc1ccc(C(C)(C)C)c(OCC(=O)Nc2ccc(O)cc2)c1 [Compound 55, 2-(2-(tert-butyl)-5-methylphenoxy)-N-(4-hydroxyphenyl)acetamide] | – | – | 0.1726 | 0.6623
8 | CC(C)(C)c1cccc(CO)c1OCC(=O)Nc1ccc(O)cc1 [Compound 58, 2-(2-(tert-butyl)-6-(hydroxymethyl)phenoxy)-N-(4-hydroxyphenyl)acetamide] | – | – | 0.5159 | 0.8071
9 | COC(=O)c1ccc(C(C)(C)C)c(OCC(=O)Nc2ccc(O)cc2)c1 [Compound 62, 4-(tert-butyl)-3-(24(4-hydroxyphenyl)amino)-2-oxoethoxy)methyl benzoate] | – | – | 0.5464 | 0.7359
10 | CC(C)(C)c1ccc(C(N)=O)cc1OCC(=O)Nc1ccc(O)cc1 [Compound 63] | – | – | 2.041 | 1.065
11 | CC(C)(C)c1ccc(C(=O)O)cc1OCC(=O)Nc1ccc(O)cc1 [Compound 64] | – | – | −0.0799 | 0.2131
12 | COC(=O)c1cccc(C(C)(C)C)c1OCC(=O)Nc1ccc(O)cc1 [Compound 65, 3-(tert-butyl)-2-(2-((4-hydroxyphenyl)amino)-2-oxoethoxy)methyl benzoate] | – | – | 0.00292 | 0.1431
13 | CC(C)(C)c1cc(C#N)ccc1OCC(=O)Nc1ccc(O)cc1 [Compound 66, 2-(2-(tert-butyl)-4-cyanophenoxy)-N-(4-hydroxyphenyl)acetamide] | – | – | 1.2627 | 1.569

Further lines, with some results ahead:

Row | binding to NAMPT (in words) (NAMPT [2]) | NAMPT activation activity (in words) (NAMPT [3]) | Relative activation of NAMPT activity (NAMPT [3]) | SMILES | Relative cytoprotective activity [1]
14 | cannot bind NAMPT | cannot activate NAMPT | −0.2247 | CC(C)(C)c1ccccc1OCC(=O)Nc1ccccc1 [Compound 2, 2-(2-(tert-butyl)phenoxy)-N-phenylacetamide] | 0.02446
15 | – | – | 0.2583 | CC(C)(C)c1ccccc1OCC(=O)Nc1ccc(O)cc1Cl [Compound 36, 2-(2-(tert-butyl)phenoxy)-N-(2-chloro-4-hydroxyphenyl)acetamide] | 0.06922
16 | – | – | 0.03898 | CC(C)(C)c1ccccc1OCC(=O)Nc1ccc(O)cc1F [Compound 40, 2-(2-(tert-butyl)phenoxy)-N-(2-fluoro-4-hydroxyphenyl)acetamide] | 0.1859
17 | – | – | 0.1348 | CC(C)(C)c1ccccc1OCC(=O)Nc1ccc(O)c(F)c1 [Compound 41, 2-(2-(tert-butyl)phenoxy)-N-(3-fluoro-4-hydroxyphenyl)acetamide] | 0.9588
18 | – | – | 1.488 | CC(C)(C)c1cc(O)ccc1OCC(=O)Nc1ccc(O)cc1 [Compound 52] | 1.358
19 | – | – | 0.3183 | CC(C)(C)c1cc(Cl)ccc1OCC(=O)Nc1ccc(O)cc1 [Compound 57, 2-(2-(tert-butyl)-4-chlorophenoxy)-N-(4-hydroxyphenyl)acetamide] | 1.099
20 | – | – | 0.4032 | CC(C)(C)c1cc(Br)ccc1OCC(=O)Nc1ccc(O)cc1 [Compound 61, 2-(4-bromo-2-(tert-butyl)phenoxy)-N-(4-hydroxyphenyl)acetamide] | 1.285
